The target in one assay is T1, mu opioid receptor (Rattus norvegicus, UniProt P33535).
T1 construct: from tissue; host or cells: rat forebrain membrane (particulate) preparation
Put plainly: Rat brain mu opioid receptor binding assay ([3H]DAMGO). Conditions: rat forebrain membranes, 25° C. As to the method: (§1) Rat Brain Mu and Delta Opioid Receptor Binding Assay
(§2) Male, Wistar rats (150-250 g, VAF, Charles River, Kingston, N.Y.) were killed by cervical dislocation and their brains removed and placed immediately in ice cold Tris HCl buffer (50 mM, pH 7.4). The forebrains were separated from the remainder of the brain by a coronal transection, beginning dorsally at the colliculi and passing ventrally through the midbrain-pontine junction. After dissection, the forebrains were homogenized in Tris buffer in a Teflon®-glass homogenizer. The homogenate was diluted to a concentration of 1 g of forebrain tissue per 100 mL Tris buffer and centrifuged at 39,000×G for 10 min. The pellet was resuspended in the same volume of Tris buffer with several brief pulses from a Polytron homogenizer. This particulate preparation was used for the opioid receptor binding assays. Following incubation with the mu opioid selective peptide ligand [^3H]DAMGO or the delta opioid selective ligand [^3H]DPDPE at 25° C., the tube contents were filtered through Whatman GF/B filter sheets on a Brandel cell harvester. The tubes and filters were rinsed three times with 4 mL of 10 mM HEPES (pH 7.4) and the radioactivity associated with the filter circles determined using Formula 989 scintillation fluid (New England Nuclear, Boston, Mass.) in a scintillation counter.
(§3) The data were used to calculate a Ki value, using GraphPad Prism.

The target of the next assay is T2, delta opioid receptor (Rattus norvegicus, UniProt P33533).
T2 construct: from tissue; host or cells: rat forebrain membrane (particulate) preparation
Kind of assay: Rat brain delta opioid receptor binding assay ([3H]DPDPE). Conditions: rat forebrain membranes, 25° C. As to the method:
as §1
as §2, with “Following incubation with the mu opioid selective peptide ligand [^3H]DAMGO or the delta opioid selective ligand [^3H]DPDPE at 25° C., the tube contents were filtered through Whatman GF/B filter sheets on a Brandel cell harvester.” left out
as §3

The next assay deals with T3, Delta opioid (Mus musculus, UniProt P32300).
T3 construct: NG108-15 cell membranes were purchased from Applied Cell Sciences (Rockville, Md.); host or cells: NG108-15 cell membranes
Kind of assay: [35S]GTPγS binding assay in NG108-15 cell membrane. In kind it is biochemical. Conditions: NG108-15 cell membranes. As to the method: [^35S]GTPγS Binding Assay in NG108-15 Cell Membrane
NG108-15 cell membranes were purchased from Applied Cell Sciences (Rockville, Md.). An 8 mg/mL portion of membrane protein was suspended in 10 mM TRIS-HCl, pH 7.2, 2 mM EDTA, 10% sucrose.
Membranes were maintained at 4-8° C. A 1 mL portion of membranes was added into 10 mL cold assay buffer, containing 50 mM Tris, pH 7.6, 5 mM MgCl2, 100 mM NaCl, 1 mM DTT and 1 mM EGTA. The membrane suspension was homogenized with a Polytron 2 times and centrifuged at 3000 rpm for 10 min. The supernatant was then centrifuged at 18,000 rpm for 20 min. The pellet was resuspended in 10 ml assay buffer using a Polytron.
The pellet membranes (75 μg/ml) were preincubated with SPA beads (10 mg/ml) at 25° C. for 45 min in the assay buffer. The SPA beads (5 mg/ml) coupled with membranes (37.5 μg/ml) were then incubated with 0.1 nM [^35S] GTPγS in the same Tris buffer containing 100 μM GDP in total volume of 200 μl. A range of concentrations of receptor agonists was used to stimulate [^35S] GTPγS binding. The basal binding was tested in the absence of agonist and non-specific binding was tested in the presence of 10 μM unlabeled GTPγS. The radioactivity was quantified on a Packard TopCount.
Calculations were performed as follows: % of Basal=(stimulated−non specific)*100/(basal−non specific).
(§4) EC50 values were calculated using the Prism program.

The target of the next assay is T4, Human mu opioid (Homo sapiens, UniProt P35372).
T4 construct: host or cells: CHO cell membranes
Put plainly: [35S]GTPγS binding assay in human mu opioid-CHO cell membranes. It counts as biochemical. As to the method:
[^35S]GTPγS Binding Assay in Human mu opioid-CHO Cell Membranes
Human mu-CHO cell membranes were purchased from Receptor Biology, Inc. (Baltimore, Md.). About 10 mg/ml of membrane protein was suspended in 10 mM TRIS-HCl, pH 7.2, 2 mM EDTA, 10% sucrose.
Membranes were maintained at 4-8° C. 1 ml of membranes was added into 15 ml cold assay buffer, containing 50 mM HEPES, pH 7.6, 5 mM MgCl2, 100 mM NaCl, 1 mM DTT and 1 mM EDTA. The membrane suspension was homogenized with a Polytron 2 times and centrifuged at 3000 rpm for 10 min. The supernatant was then centrifuged at 18,000 rpm for 20 min. The pellet was resuspended in 10 ml assay buffer with a Polytron.
The pellet membranes (20 μg/ml) were preincubated with Scintillation Proximity Assay beads (SPA, 10 mg/ml) at 25° C. for 45 min in the assay buffer. The SPA beads (5 mg/ml) coupled with membranes (10 μg/ml) were then incubated with 0.5 nM [^35S]GTPγS in the same HEPES buffer containing 50 μM GDP in total volume of 200 μl. A range of concentrations of receptor agonists were used to stimulate [^35S]GTPγS binding. The basal binding was tested in the absence of agonist and non-specific binding was tested in the presence of 10 μM unlabeled GTPγS. Radioactivity was quantified on a Packard TopCount.
Data were Calculated as Follows: % of basal=(stimulated−non-specific)*100/(basal−non specific) % Inhibition=(% Basal of 1 μM DAMGO−% Basal of compound)*100/(% Basal of 1 μM DAMGO−100)
as §4
For orientation: GTPγS is a poorly hydrolysed GTP analogue; its binding reports G protein activation.

In another assay the test system is Male Sprague Dawley rats. Put plainly: Spinal nerve ligation (SNL) model of neuropathic pain, mechanical allodynia (Von Frey). In kind it is in vivo. Conditions: rat. As to the method:
Spinal Nerve Ligation (SNL) Model of Neuropathic Pain
Male Sprague Dawley rats weighing 145 to 165 g (approximately 6 weeks of age) were obtained from Harlan (Indianapolis, Ind.). Food and water were provided ad lib and a 12 h light and 12 h dark cycle were maintained. Animals were group housed under specific pathogen-free, barrier maintained environment and were allowed to acclimate for no less than 1 week. Following surgery, animals were housed individually in solid bottom polycarbonate cages with automatic watering devices at 22° C. and a relative humidity of 60%. All animals received Harland Tekland Diet # 8604.
Anesthesia was induced using isoflurane (IsoVet™) inhalant in an induction chamber (3-5% in 2 L/min of O2). Once recumbent, the animal was removed and placed into a nose cone which delivered inhalant isoflurane (0.5-2.5% at 2 L/min Of O2). The dorsal pelvic area was shaved and scrubbed aseptically with chlorhexidine scrub, 70% alcohol, and a 5% chlorhexidine solution. The animal was held in ventral recumbency on a heating pad, and the surgical procedure described by Kim and Chung (1992) was performed. The left paraspinal muscles were separated from the spinous processes at the level of Lumbar 4 to Sacral 2 (L4-S2). Once the musculature was retracted, the L6 transverse process was removed using a small rongeur. L4 and L5 spinal nerves could then be visualized. L5 was then isolated and ligated using 6-0 silk suture material. Warm saline and a dose of long-acting antibiotic was administered immediately post-op before recovery form anesthesia.
At least one week following surgery, animals were individually placed in a Lucite testing chamber with a wire mesh bottom. Mechanical (tactile) allodynia was measured by recording the pressure at which the affected paw was withdrawn from graded stimuli (Von Frey hairs ranging from 4.0 to 148.1 mN equivalent to 0.25 to 15 g of pressure) applied to the plantar surface of the paw (between the footpads) according to the procedure of Chaplan et. al (1994) in order to calculate paw withdrawal threshold (PWT). Normal rats can withstand at least 15 g of pressure without responding. SNL rats can respond to as little as 0.25 g of pressure. Rats were included in this study only if their PWT was below 4.0 g.
Animals were used for compound testing between 2 weeks and 8 weeks post-operatively. Animals were always pre-tested for baseline withdrawal threshold on the day of testing. Following a 16 h fast, PWT was evaluated at 30 min, 1 h, 2 h, and 4 h post-dosing. Dose-response studies were conducted at the time of peak effect. Studies were conducted in a blinded manner.
Data were normalized and results were presented as % MPE (maximum possible effect) of the drug.

Another assay relates to male Sprague-Dawley rats. Kind of assay: Rat CFA radiant heat model of inflammatory pain. In kind it is in vivo. Conditions: dosed orally 24 h after intraplantar CFA. As to the method: Rat CFA Radiant Heat Model of Inflammatory Pain
Intraplantar injection of Complete Freund's Adjuvant (CFA) in rodents results in a strong, long-lasting inflammatory reaction, characterized by a chronic and pronounced hyperalgesia to both thermal and mechanical stimuli. These effects peak between 24-72 h following injection, and can last for several days to a few weeks. To assess the ability of compounds to reverse thermal hyperalgesia, male Sprague-Dawley rats (200-350 g) were given an intraplantar injection of CFA (1:1 CFA:saline, 100 μL) into their left hindpaw. Following a 24-h incubation period, response latencies on the Radiant Heat Paw Stimulator (RH) were obtained and compared to baseline (pre-CFA) latencies. The RH device automatically registered lifting of the paw from the surface of the glass. […] Following the post CFA latency assessment, rats were dosed orally (2.5 mL/kg) with test compound or vehicle (hydroxypropylmethylcellulose, HPMC). Percent reversal of hyperalgesia was calculated for each animal as (Treatment Response−postCFA Response)/(preCFA Response−postCFA Response)×100. Therefore, a return to normal pre-CFA thresholds was defined as 100% efficacy, whereas no change from post-CFA thresholds was 0% efficacy. Average % reversal of hyperalgesia was then calculated for each treatment group (n=6-8 rats/group). […]

Assay [1] concerns spinal nerve ligated rats. Put plainly: Investigation of tolerance development to antiallodynic effect. Conditions: dosing for five days, evaluated days one and five. In kind it is in vivo, rat. As to the method:
Investigation of Tolerance Development
The development of tolerance to the analgesic effect of mu opioid compounds is well known. The development of tolerance to the antiallodynic effect of the Compound 3 was investigated by administering the compound to spinal nerve ligated rats for five days. The antiallodynic effect of the compound was evaluated on days one and five.

Where only a bound is given, the exact number is not on record here.

T2 sequence (P33533 whole entry): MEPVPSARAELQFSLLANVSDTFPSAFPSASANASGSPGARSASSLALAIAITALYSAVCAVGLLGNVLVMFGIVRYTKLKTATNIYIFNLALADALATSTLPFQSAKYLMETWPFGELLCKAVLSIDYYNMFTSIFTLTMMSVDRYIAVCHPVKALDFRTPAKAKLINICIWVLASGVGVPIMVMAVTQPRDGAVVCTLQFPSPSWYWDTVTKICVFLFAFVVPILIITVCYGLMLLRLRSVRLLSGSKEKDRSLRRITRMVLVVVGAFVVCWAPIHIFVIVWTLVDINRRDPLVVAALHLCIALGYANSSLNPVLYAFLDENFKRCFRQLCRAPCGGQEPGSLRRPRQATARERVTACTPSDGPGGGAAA
T4 sequence (P35372 whole entry): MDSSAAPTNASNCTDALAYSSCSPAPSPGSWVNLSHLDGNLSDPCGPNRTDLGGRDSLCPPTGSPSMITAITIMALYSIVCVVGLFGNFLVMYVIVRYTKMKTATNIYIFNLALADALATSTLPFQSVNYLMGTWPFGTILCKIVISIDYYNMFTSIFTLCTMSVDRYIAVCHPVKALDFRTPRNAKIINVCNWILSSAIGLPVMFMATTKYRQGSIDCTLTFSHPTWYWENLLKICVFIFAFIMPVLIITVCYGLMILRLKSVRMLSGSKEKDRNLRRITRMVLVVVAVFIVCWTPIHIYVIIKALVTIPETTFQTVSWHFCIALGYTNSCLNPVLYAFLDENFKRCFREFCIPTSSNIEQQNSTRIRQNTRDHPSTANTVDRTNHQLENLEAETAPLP
T1 sequence (P33535 whole entry): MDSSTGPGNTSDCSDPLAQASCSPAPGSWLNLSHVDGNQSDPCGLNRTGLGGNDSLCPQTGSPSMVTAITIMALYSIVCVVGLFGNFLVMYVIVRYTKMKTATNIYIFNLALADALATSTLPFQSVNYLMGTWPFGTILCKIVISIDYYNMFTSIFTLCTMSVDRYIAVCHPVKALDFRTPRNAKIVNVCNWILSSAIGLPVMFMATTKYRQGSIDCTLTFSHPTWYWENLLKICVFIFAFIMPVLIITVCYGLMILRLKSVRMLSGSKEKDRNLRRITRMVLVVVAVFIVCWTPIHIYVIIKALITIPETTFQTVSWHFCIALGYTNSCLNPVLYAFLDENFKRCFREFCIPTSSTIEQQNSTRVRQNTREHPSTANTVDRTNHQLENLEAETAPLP
T3 sequence (P32300 whole entry): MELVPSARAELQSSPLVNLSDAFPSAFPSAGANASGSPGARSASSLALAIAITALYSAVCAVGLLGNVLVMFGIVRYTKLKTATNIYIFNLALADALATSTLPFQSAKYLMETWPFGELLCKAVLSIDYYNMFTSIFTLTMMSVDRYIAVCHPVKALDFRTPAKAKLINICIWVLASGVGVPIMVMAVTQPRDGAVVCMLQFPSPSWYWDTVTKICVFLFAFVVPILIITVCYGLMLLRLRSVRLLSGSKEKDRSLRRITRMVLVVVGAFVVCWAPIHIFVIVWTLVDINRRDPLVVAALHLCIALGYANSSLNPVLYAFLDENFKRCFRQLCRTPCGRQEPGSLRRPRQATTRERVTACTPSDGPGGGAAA

Take `CN(C)C[C@@H]1CCCC[C@]1(O)c1cccc(C(N)=O)c1` (racemic) [Cpd 1, 3-[(1-RS, 2-SR)-2-[(Dimethylamino)methyl]-1-hydroxycyclohexyl]-benzamide]: the Ki (commonly the dissociation constant of the complex between target and ligand, obtained from inhibition or displacement) on mu opioid receptor came to 1.39 µM; on delta opioid receptor it was 9.87 µM.

For `CN(C)C[C@H]1CCCC[C@]1(O)c1cccc(C(N)=O)c1` (racemic) [Cpd 2, 3-[(1-RS, 2-RS)-[(2-Dimethylamino)methyl]-1-hydroxycyclohexyl]-benzamide], the Ki at mu opioid receptor is 0.0294 µM; at delta opioid receptor, 2.47 µM. Besides, at Delta opioid, the midpoint of the response, the EC50, lay at 5.63 µM. Besides, the “Mu opioid GTPγS (result in words)” value at Human mu opioid is “Agonist”. Further, the “MPE in spinal nerve ligation model” value stood at 87% in the assay on Male Sprague Dawley rats (3 mg/kg, i.v.) and 88% with Male Sprague Dawley rats (30 mg/kg, p.o.).

With `CCN(CC)C(=O)c1cccc([C@@]2(O)CCCC[C@@H]2CN(C)C)c1` (racemic) [Cpd 5, 3-[(1-RS, 2-RS)-2-[(dimethylamino)methyl]-1-hydroxycyclohexyl]-N,N-diethyl-benzamide], the Ki on mu opioid receptor and on delta opioid receptor was more than 10 µM throughout.

For the compound `CN(C)C[C@H]1CCCC[C@]1(O)c1cccc(C(=O)NC2CC2)c1` (racemic) [Cpd 6, N-Cyclopropyl-3-[(1-RS, 2-RS)-2-[(dimethylamino)methyl]-1-hydroxycyclohexyl]-benzamide], the Ki was 5.19 µM at mu opioid receptor and more than 10 µM on delta opioid receptor.

For the compound `CNC(=O)c1cccc([C@@]2(O)CCCC[C@@H]2CN(C)C)c1` (racemic) [Cpd 7, 3-[(1-RS, 2-RS)-2-[(Dimethylamino)methyl]-1-hydroxycyclohexyl]-N-methylbenzamide], the inhibitory constant (Ki) on mu opioid receptor is 2.12 µM; at delta opioid receptor, more than 10 µM.

As for `CN(C)C[C@@H]1CCCC[C@@]1(O)c1cccc(C(N)=O)c1` (single isomer, unassigned) [Cpd 4], the Ki is 0.828 µM at mu opioid receptor and more than 10 µM at delta opioid receptor. The “Antihyperalgesic effect (reversal of thermal hyperalgesia)” value in the assay on male Sprague-Dawley rats was “antihyperalgesic”. Moreover, at Human mu opioid, a half-maximal response (EC50) required 4.82 µM. In addition, at Human mu opioid, the “Mu opioid GTPγS relative efficacy” value came to 41%. In addition, the “MPE in spinal nerve ligation model” value in the assay with Male Sprague Dawley rats (30 mg/kg, p.o.) is 39%; in the assay with Male Sprague Dawley rats (100 mg/kg, p.o.) it was 95%.

Turning to `CN1CC[C@]23c4c5ccc(O)c4O[C@H]2[C@@H](O)C=C[C@H]3[C@H]1C5` [morphine, reference compound], the “Development of tolerance to the antiallodynic effect” value in assay [1] was “little or no antiallodynic effect remaining after five days of dosing”.

Values taken from patent US7745492B2, “Carboxamido opioid compounds” (Janssen Pharmaceutical, priority 2004, dated 2010).
